Experimental findings from US12331044B2, “Inhibitors of histone deacetylase useful for the treatment or prevention of HIV infection” (Merck Sharp & Dohme LLC, priority 2018, dated 2025) are described below.

SMILES strings stand for the structures. Like-named read-outs stand apart in the source and are kept apart here.

Usually EC50 stands for the concentration that produces a half-maximal response. The IC50 is the concentration needed to halve the response being measured.

One assay has as its system KARN cells (Jurkat 2C4). Nature of the assay: cells. The settings on record: Homo sapiens.
Another assay addresses human HDAC8 (Homo sapiens (Human), UniProt Q9BY41). In words: HDAC8 inhibition assay (modified FLUOR DE LYS, 384-well). The class given is biochemical.
Assay [1] has as its target T1, human HDAC1 (Homo sapiens (Human), UniProt Q13547). In words: biochemical.
Another assay concerns the target human HDAC2 (Homo sapiens (Human), UniProt Q92769). In words: HDAC2 inhibition assay (modified FLUOR DE LYS, 384-well). It is filed as biochemical.
Assay [2] has as its target T2, HDAC6 (Homo sapiens (Human), UniProt Q9UBN7). In words: biochemical.
Method: (§1) The histone deacetylase activities of HDAC1, HDAC2, HDAC3, HDAC6, and HDAC8 were measured in modified FLUOR DE LYS assays in 384-well format. In this assay, HDAC enzymes are initially incubated with an F-acetyl (or -trifluoroacetyl)-L-lysine-containing substrate with a C-terminal amide having aminomethylcoumarin as the amine component. HDACs cleave the F-acetyl group, rendering the resulting product susceptible to AMC cleavage by trypsin. The released AMC is then detected by its fluorescence. […] All steps were performed at room temperature (23° C.). The assay was performed by pre-incubating serial dilutions of test compounds with the target HDAC prior to initiation with substrate. […] Final conditions used for each assay were: 1. […] The reactions were stopped and developed by addition of 30 ul of HDAC developer solution containing a saturating level of HDAC inhibitor as follows: 1. […] For data analysis, background subtracted product (fluorescence) vs. time data for each inhibitor concentration was fitted using a 4-parameter fit.
Assay [3] addresses T3, human HDAC3/SMRT heterodimer (Homo sapiens (Human), UniProt O15379). Nature of the assay: biochemical.
Assay [4] addresses T3, human HDAC3/SMRT heterodimer.
Assay [5] concerns the target T1, human HDAC1.
For assay [6], the target named is T2, HDAC6.
Method: as §1
Setting [7] is: read-out: Karn EC50 nM 0.1% NHS, 0.1% normal human serum, luciferase induction, 2 μM SAHA = 100%.
The mark [8] stands for this setting: read-out: Karn EC50 nM 5% NHS, 5% normal human serum, luciferase induction, 2 μM SAHA = 100%.
Where [9] appears, read: […] nM enzyme, 200 μM substrate BML-KI178, 3 h pre-incubation, read-out: HDAC8 IC50.
Where [10] appears, read: […] nM enzyme, 40 μM substrate BML-KI104, 3 h pre-incubation, read-out: HDAC2 IC50.
[11] abbreviates: […] enzyme, 200 μM substrate BML-KI178, 3 h pre-incubation, read-out: HDAC8 IC50.
The mark [12] stands for this setting: […] enzyme, 40 μM substrate BML-KI104, 3 h pre-incubation, read-out: HDAC2 IC50.

T1 sequence (Q13547 whole entry): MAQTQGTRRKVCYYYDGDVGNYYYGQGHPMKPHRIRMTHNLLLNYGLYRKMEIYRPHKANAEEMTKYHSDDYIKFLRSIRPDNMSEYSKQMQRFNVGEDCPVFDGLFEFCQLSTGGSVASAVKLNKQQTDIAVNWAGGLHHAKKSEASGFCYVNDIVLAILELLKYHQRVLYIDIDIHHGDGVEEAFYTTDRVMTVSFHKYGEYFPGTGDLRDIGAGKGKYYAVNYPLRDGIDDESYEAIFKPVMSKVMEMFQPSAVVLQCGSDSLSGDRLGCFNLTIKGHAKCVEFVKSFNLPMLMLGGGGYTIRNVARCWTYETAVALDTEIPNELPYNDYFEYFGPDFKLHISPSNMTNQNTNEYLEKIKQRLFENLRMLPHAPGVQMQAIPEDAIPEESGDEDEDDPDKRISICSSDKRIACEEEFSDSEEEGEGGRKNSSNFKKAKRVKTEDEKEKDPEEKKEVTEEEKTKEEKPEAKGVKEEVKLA
Chain of human HDAC8 (Q9BY41 whole entry): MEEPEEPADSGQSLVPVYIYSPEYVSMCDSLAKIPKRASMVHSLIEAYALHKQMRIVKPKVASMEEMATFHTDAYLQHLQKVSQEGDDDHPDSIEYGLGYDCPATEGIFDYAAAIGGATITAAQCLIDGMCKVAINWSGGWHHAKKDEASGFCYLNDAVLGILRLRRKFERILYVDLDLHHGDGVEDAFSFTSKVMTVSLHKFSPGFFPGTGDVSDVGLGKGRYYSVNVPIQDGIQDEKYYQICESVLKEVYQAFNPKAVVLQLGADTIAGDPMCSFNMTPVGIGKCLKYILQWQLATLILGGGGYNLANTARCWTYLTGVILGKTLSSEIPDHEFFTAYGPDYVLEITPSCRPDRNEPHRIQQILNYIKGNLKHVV
T3 sequence (O15379 whole entry): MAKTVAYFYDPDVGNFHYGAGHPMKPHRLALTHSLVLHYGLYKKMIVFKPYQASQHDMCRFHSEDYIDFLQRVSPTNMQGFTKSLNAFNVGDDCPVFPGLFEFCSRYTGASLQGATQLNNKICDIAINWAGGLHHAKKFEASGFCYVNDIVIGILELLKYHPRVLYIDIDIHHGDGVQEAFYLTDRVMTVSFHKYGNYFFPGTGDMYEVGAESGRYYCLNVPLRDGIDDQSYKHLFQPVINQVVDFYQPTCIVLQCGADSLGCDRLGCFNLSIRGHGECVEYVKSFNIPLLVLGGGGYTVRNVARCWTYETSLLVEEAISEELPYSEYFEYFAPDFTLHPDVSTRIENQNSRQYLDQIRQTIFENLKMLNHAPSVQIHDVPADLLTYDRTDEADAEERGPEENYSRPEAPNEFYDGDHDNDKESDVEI
T3 sequence (Q9Y618 1-899 partner): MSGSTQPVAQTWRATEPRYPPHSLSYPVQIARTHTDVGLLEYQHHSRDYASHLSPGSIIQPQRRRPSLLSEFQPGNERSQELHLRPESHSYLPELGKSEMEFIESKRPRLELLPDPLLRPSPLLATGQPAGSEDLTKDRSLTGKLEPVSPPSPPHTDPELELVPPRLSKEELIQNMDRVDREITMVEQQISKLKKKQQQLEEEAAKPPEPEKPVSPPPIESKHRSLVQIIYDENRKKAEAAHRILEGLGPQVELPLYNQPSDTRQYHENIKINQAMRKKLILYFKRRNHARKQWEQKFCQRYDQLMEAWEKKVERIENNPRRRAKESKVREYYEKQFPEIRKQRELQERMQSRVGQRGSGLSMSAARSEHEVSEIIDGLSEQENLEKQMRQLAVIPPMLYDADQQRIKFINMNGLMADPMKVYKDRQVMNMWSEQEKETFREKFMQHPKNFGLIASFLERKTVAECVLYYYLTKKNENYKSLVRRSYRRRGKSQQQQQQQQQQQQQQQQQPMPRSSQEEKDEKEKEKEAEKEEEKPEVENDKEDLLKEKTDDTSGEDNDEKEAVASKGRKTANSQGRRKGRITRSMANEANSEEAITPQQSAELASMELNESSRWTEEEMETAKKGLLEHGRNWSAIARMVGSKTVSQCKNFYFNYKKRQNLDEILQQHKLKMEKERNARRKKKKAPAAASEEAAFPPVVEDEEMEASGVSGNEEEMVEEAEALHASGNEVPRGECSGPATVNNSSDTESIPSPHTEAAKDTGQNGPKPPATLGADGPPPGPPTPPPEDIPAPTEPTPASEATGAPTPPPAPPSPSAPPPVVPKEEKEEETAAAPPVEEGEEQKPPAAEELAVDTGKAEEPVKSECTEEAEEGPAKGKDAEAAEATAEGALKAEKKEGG
Chain of human HDAC2 (Q92769 whole entry): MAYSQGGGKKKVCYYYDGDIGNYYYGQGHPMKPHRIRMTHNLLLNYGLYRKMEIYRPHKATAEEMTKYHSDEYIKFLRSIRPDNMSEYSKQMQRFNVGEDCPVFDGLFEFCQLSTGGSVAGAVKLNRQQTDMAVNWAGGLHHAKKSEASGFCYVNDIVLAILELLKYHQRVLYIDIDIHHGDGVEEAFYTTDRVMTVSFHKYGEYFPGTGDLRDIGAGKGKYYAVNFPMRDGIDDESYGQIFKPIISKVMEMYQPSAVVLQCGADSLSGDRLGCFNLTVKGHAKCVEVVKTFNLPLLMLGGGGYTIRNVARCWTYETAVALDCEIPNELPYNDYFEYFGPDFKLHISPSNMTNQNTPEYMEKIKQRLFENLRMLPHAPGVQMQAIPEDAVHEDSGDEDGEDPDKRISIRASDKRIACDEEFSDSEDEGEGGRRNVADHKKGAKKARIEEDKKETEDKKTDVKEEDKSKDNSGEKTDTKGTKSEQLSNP
T2 sequence (Q9UBN7 whole entry): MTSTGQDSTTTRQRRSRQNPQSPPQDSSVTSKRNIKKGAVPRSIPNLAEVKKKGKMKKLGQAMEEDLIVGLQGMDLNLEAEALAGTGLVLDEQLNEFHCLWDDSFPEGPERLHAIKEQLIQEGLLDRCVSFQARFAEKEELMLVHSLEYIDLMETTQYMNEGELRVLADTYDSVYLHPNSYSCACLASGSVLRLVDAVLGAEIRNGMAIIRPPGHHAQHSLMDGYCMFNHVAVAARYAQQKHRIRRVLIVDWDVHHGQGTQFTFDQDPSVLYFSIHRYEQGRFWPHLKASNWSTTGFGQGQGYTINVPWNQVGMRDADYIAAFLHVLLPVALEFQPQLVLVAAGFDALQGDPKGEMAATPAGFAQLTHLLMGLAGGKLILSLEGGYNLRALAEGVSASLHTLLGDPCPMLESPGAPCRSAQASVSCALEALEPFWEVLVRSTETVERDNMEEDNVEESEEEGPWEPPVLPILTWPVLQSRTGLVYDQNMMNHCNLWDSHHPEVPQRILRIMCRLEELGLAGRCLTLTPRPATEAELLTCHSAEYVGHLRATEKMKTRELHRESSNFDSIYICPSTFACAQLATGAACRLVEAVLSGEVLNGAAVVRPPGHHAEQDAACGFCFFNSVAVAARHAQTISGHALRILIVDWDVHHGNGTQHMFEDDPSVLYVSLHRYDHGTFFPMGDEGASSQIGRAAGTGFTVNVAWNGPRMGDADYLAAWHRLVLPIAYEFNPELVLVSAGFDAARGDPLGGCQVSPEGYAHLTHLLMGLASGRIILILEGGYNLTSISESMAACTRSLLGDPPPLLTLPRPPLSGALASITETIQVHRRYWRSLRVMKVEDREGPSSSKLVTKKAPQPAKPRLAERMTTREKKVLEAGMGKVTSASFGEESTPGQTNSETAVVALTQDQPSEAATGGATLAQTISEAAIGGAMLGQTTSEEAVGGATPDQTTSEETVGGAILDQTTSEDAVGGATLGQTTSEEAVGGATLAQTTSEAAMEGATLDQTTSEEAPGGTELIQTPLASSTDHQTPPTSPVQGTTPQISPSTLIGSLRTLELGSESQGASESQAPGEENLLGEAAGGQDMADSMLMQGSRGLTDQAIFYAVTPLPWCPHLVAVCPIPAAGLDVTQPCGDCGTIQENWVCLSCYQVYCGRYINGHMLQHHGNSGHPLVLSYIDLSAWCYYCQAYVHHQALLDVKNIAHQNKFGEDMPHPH
Method for KARN cells (Jurkat 2C4): KARN Assay Cell Maintenance
KARN cells (Jurkat 2C4) were licensed from the laboratory of Dr. John Karn, Case Western Reserve University, School of Medicine. […] An atmosphere of 5% CO2 and 90% humidity was used for all culture work.
These flasks were returned to the incubator.
The cells were gently resuspended in assay media (30 ml) and pelleted again. […] The cells were counted using the ViCell (Beckman Coulter) and diluted as necessary. […] The plates were covered and returned to the incubator prior to compound addition.
The reference compounds, DMSO and SAHA were then added to the compound plate. […] The final high concentration for SAHA and the test compounds in the assays was 40 μM. The final DMSO concentration in all wells was 0.4%. The minimal induction reference compound used was DMSO and the maximal induction reference compound used was SAHA (2 μM final concentration in the assay).
Day 3: The luciferase detection reagent was prepared by transferring the contents of one bottle of Steady-Glo buffer to one bottle of Steady-Glo aubstrate (Steady-Glo Luciferase Assay System, Promega, catalog number E2520), followed by gently mixing until the substrate was thoroughly dissolved and the solution was equilibrated to room temperature. […] The Steady-Glo Reagent was added to the plates (30 μl/well), which were then covered with a black lid and incubated for 10 minutes at room temperature. The plates were then read for luminescence on an Envision (Perkin Elmer) using the ultrasensitive mode (US LUM), 0.1 counts per second and 384-well aperture. Luminescence counts in the DMSO reference wells were considered as 0% induction, while those in the 2 μM SAHA reference wells were considered as 100% induction. Dose response curves were plotted as test compound concentration (X-axis) vs. percent activation (Y-axis) using a 4-parameter fit based on the Levenberg-Marquardt algorithm.

Consider `Cc1ccc2cc(-c3c[nH]c([C@@H](N)CCCCCC(=O)c4ncco4)n3)ccc2n1` [Example 9, (S)-7-amino-7-(4-(2-methylquinolin-6-yl)-1H-imidazol-2-yl)-1-(oxazol-2-yl)heptan-1-one], for which the concentration giving a half-maximal response (EC50) in the assay on KARN cells (Jurkat 2C4) (setting [7]) and in the assay on KARN cells (Jurkat 2C4) (setting [8]) was 160 nM in each case. Also, the IC50 on human HDAC8 (setting [9]) came out at 2000 nM; on human HDAC1 [1] it was 2.4 nM; at human HDAC2 (setting [10]), 12 nM; against HDAC6 [2], 2300 nM.

As to `CCn1ccc2cc(-c3c[nH]c([C@@H](N)CCCCCC(=O)c4ncco4)n3)ccc2c1=O` [Example 10, (S)-6-(2-(1-amino-7-(oxazol-2-yl)-7-oxoheptyl)-1H-imidazol-4-yl)-2-ethylisoquinolin-1(2H)-one], the EC50 in the assay with KARN cells (Jurkat 2C4) (setting [7]) was determined as 300 nM; in the assay with KARN cells (Jurkat 2C4) (setting [8]) it was 450 nM. Moreover, the IC50 at human HDAC8 (setting [9]) is 2350 nM; in assay [3], 2.8 nM; on human HDAC1 [1] it was 2.6 nM; on human HDAC2 (setting [10]) it was 9.9 nM; against HDAC6 [2] it was at least 45000 nM.

Take `N[C@@H](CCCCCC(=O)c1ncco1)c1ncc(-c2ccc3ncccc3c2)[nH]1` [Example 16, (S)-7-amino-1-(oxazol-2-yl)-7-(5-(quinolin-6-yl)-1H-imidazol-2-yl)heptan-1-one]: the EC50 with KARN cells (Jurkat 2C4) (setting [7]) stood at 120 nM; in the assay on KARN cells (Jurkat 2C4) (setting [8]), 170 nM. Besides, the concentration for half-maximal inhibition (IC50) on human HDAC8 (setting [9]) amounted to 1400 nM; in assay [3] it was 2.6 nM; against human HDAC1 [1], 2.7 nM; on human HDAC2 (setting [10]) it was 8.8 nM; on HDAC6 [2] it was 33000 nM.

As to `COc1cc2nc(C)ccc2cc1-c1cnc([C@@H](N)CCCCCC(=O)c2ncco2)o1` [Example 27, (S)-7-amino-7-(5-(7-methoxy-2-methylquinolin-6-yl)oxazol-2-yl)-1-(oxazol-2-yl)heptan-1-one], the EC50 in the assay on KARN cells (Jurkat 2C4) (setting [7]) was 120 nM; in the assay with KARN cells (Jurkat 2C4) (setting [8]), 140 nM. Moreover, the IC50 at human HDAC8 (setting [9]) was 1200 nM; at human HDAC1 [1] it was 1.9 nM; at human HDAC2 (setting [10]), 9.5 nM; on HDAC6 [2], 1110 nM.

On to `COc1cc2ncccc2cc1-c1c[nH]c([C@@H](N)CCCCCC(=O)c2ccon2)n1` [Example 34, (S)-7-amino-1-(isoxazol-3-yl)-7-(4-(7-methoxyquinolin-6-yl)-1H-imidazol-2-yl)heptan-1-one], for which the 50% effective concentration (EC50) with KARN cells (Jurkat 2C4) (setting [7]) amounted to 23 nM; in the assay with KARN cells (Jurkat 2C4) (setting [8]) it was 44 nM. In addition, the half-maximal inhibitory concentration (IC50) on human HDAC8 (setting [9]) turned out to be 120 nM; against human HDAC1 [1], 1.4 nM; on human HDAC2 (setting [10]), 5.1 nM; against HDAC6 [2], 5600 nM.

As to `N[C@@H](CCCCCC(=O)c1cocn1)c1ncc(-c2ccccc2F)[nH]1` [Example 36, (S)-7-amino-7-(5-(2-fluorophenyl)-1H-imidazol-2-yl)-1-(oxazol-4-yl)heptan-1-one], the concentration for half-maximal inhibition (IC50) on human HDAC8 (setting [9]) and at HDAC6 [2] was above 900 nM in each case.

`Cc1ccc2cc(-c3c[nH]c([C@H](CCCCCC(=O)c4ncco4)NC4CCN(C)CC4)n3)ccc2n1` [Example 78, (S)-7-((1-methylpiperidin-4-yl)amino)-7-(5-(2-methylquinolin-6-yl)-1H-imidazol-2-yl)-1-(oxazol-2-yl)heptan-1-one]: the figures for the EC50 in the assay on KARN cells (Jurkat 2C4) (read-out: Karn EC50 nM 0.1% NHS) and with KARN cells (Jurkat 2C4) (read-out: Karn EC50 nM 5% NHS) were 660 nM and 620 nM, respectively. The IC50 on human HDAC8 was 6900 nM; on human HDAC1 [1], 2.8 nM; against human HDAC2 it was 8.3 nM; against HDAC6 [2], at least 45000 nM.

As to `COc1cc(-c2cnc([C@H](CCCCCC(=O)c3ncco3)NC(=O)C3CN(C)C3)[nH]2)c(F)cn1` [Example 178, N-[(1S)-1-[5-(5-fluoro-2-methoxypyridin-4-yl)-1H-imidazol-2-yl]-7-(1,3-oxazol-2-yl)-7-oxoheptyl]-1-methylazetidine-3-carboxamide], the EC50 is 80 nM with KARN cells (Jurkat 2C4) (setting [7]) and 1000 nM in the assay with KARN cells (Jurkat 2C4) (setting [8]). Further, the IC50 is 83 nM on human HDAC8 (setting [11]); 1.5 nM in assay [4]; 2 nM on human HDAC1 [5]; 5300 nM on HDAC6 [6]; 7.8 nM at human HDAC2 (setting [12]).

As for `CCN1CCC2(CC1)C[C@@H]2C(=O)N[C@@H](CCCCCC(=O)c1ncco1)c1ncc(-c2cc(OC)ncc2F)[nH]1` [Example 179, (1S)-6-ethyl-N-[(1S)-1-[5-(5-fluoro-2-methoxypyridin-4-yl)-1H-imidazol-2-yl]-7-(1,3-oxazol-2-yl)-7-oxoheptyl]-6-azaspiro[2.5]octane-1-carboxamide], the 50% effective concentration (EC50) with KARN cells (Jurkat 2C4) (setting [7]) was 36 nM; with KARN cells (Jurkat 2C4) (setting [8]) it was 48 nM. The IC50 turned out to be 65 nM on human HDAC8 (setting [11]); 1.5 nM in assay [4]; 2.3 nM against human HDAC1 [5]; 4300 nM on HDAC6 [6]; 7.1 nM on human HDAC2 (setting [12]).

Turning to `CCN1CCC2(CC1)C[C@@H]2C(=O)N[C@@H](CCCCCC(=O)c1ncco1)c1ccn(-c2ccc3nn(C)cc3c2)n1` [Example 180, (1S)-6-ethyl-N-[(1S)-1-[1-(2-methyl-2H-indazol-5-yl)-1H-pyrazol-3-yl]-7-(1,3-oxazol-2-yl)-7-oxoheptyl]-6-azaspiro[2.5]octane-1-carboxamide], the results for the half-maximal effective concentration (EC50) in the assay with KARN cells (Jurkat 2C4) (setting [7]) and in the assay on KARN cells (Jurkat 2C4) (setting [8]) were 200 nM and 190 nM, respectively. Also, the half-maximal inhibitory concentration (IC50) is 170 nM on human HDAC8 (setting [11]); 1.5 nM in assay [4]; 0.9 nM on human HDAC1 [5]; above 900 nM on HDAC6 [6]; 5.2 nM at human HDAC2 (setting [12]).

Turning to `CN1CC(C(=O)N[C@@H](CCCCCC(=O)c2ncco2)c2ncc(-c3cc(OC4CCC4)ccc3F)[nH]2)C1` [Example 181, N-[(1S)-1-{5-[5-(cyclobutyloxy)-2-fluorophenyl]-1H-imidazol-2-yl}-7-(1,3-oxazol-2-yl)-7-oxoheptyl]-1-methylazetidine-3-carboxamide], the EC50 worked out at 84 nM in the assay with KARN cells (Jurkat 2C4) (setting [7]) and 630 nM in the assay on KARN cells (Jurkat 2C4) (setting [8]). The IC50 was 12 nM at human HDAC8 (setting [11]); 1 nM in assay [4]; 2.6 nM at human HDAC1 [5]; above 900 nM against HDAC6 [6]; 13 nM at human HDAC2 (setting [12]).

For `CCN1CCC2(CC1)C[C@@H]2C(=O)N[C@@H](CCCCCC(=O)c1ncco1)c1ncc(-c2cc(OC3CCC3)ccc2F)[nH]1` [Example 182, (1S)-N-[(1S)-1-{5-[5-(cyclobutyloxy)-2-fluorophenyl]-1H-imidazol-2-yl}-7-(1,3-oxazol-2-yl)-7-oxoheptyl]-6-ethyl-6-azaspiro[2.5]octane-1-carboxamide], the concentration giving a half-maximal response (EC50) worked out at 41 nM in the assay with KARN cells (Jurkat 2C4) (setting [7]) and 190 nM in the assay on KARN cells (Jurkat 2C4) (setting [8]). Further, the half-inhibitory concentration (IC50) was 5.6 nM at human HDAC8 (setting [11]); 0.79 nM in assay [4]; 2 nM at human HDAC1 [5]; above 900 nM on HDAC6 [6]; 9.1 nM at human HDAC2 (setting [12]).

As for `CCN1CCC2(CC1)C[C@@H]2C(=O)N[C@@](C)(CCCCCC(=O)c1ccon1)c1ncc(-c2ccccc2F)[nH]1` [Example 183, (S)-6-ethyl-N-((S)-2-(5-(2-fluorophenyl)-1H-imidazol-2-yl)-8-(isoxazol-3-yl)-8-oxooctan-2-yl)-6-azaspiro[2.5]octane-1-carboxamide], the EC50 in the assay on KARN cells (Jurkat 2C4) (setting [7]) and in the assay with KARN cells (Jurkat 2C4) (setting [8]) was 37 nM in each case. Also, the IC50 came out at 550 nM at human HDAC8 (setting [11]); 0.48 nM in assay [4]; 0.56 nM on human HDAC1 [5]; 43000 nM at HDAC6 [6]; 2.3 nM on human HDAC2 (setting [12]).

For `CN1CCC2(CC1)C[C@@H]2C(=O)N[C@@H](CCCCCC(=O)c1ncco1)c1[nH]c(-c2ccc(F)cc2)nc1C#N` [Example 187, (S)-N-((S)-1-(4-cyano-2-(4-fluorophenyl)-1H-imidazol-5-yl)-7-(oxazol-2-yl)-7-oxoheptyl)-6-methyl-6-azaspiro[2.5]octane-1-carboxamide], the half-maximal effective concentration (EC50) in the assay on KARN cells (Jurkat 2C4) (setting [7]) was 20 nM; with KARN cells (Jurkat 2C4) (setting [8]), 25 nM. The IC50 at human HDAC8 (setting [11]) was determined as 170 nM; in assay [4], 0.16 nM; at human HDAC1 [5], 0.16 nM; on HDAC6 [6] it was 45000 nM; at human HDAC2 (setting [12]) it was 0.83 nM.

Turning to `CN1CCC2(CC1)C[C@@H]2C(=O)N[C@@H](CCCCCC(=O)c1ncco1)c1oc(-c2ccc(F)cc2)nc1C#N` [Example 191, (S)-N-((S)-1-(4-cyano-2-(4-fluorophenyl)oxazol-5-yl)-7-(oxazol-2-yl)-7-oxoheptyl)-6-methyl-6-azaspiro[2.5]octane-1-carboxamide], the EC50 is 110 nM in the assay with KARN cells (Jurkat 2C4) (setting [7]) and 100 nM with KARN cells (Jurkat 2C4) (setting [8]). The IC50 on human HDAC8 (setting [11]) is 2300 nM; in assay [4] it was 1.9 nM; at human HDAC1 [5] it was 2.5 nM; against HDAC6 [6], 45000 nM; at human HDAC2 (setting [12]), 12 nM.

Take `CN1CCC2(CC1)C[C@@H]2C(=O)N[C@@H](CCCCCC(=O)c1ccon1)c1nc(Cl)c(-c2ccc(F)cc2)[nH]1` [Example 195, (S)-N-((S)-1-(4-chloro-5-(4-fluorophenyl)-1H-imidazol-2-yl)-7-(isoxazol-3-yl)-7-oxoheptyl)-6-methyl-6-azaspiro[2.5]octane-1-carboxamide 2,3-dihydroxysuccinate]: the values for the EC50 in the assay on KARN cells (Jurkat 2C4) (setting [7]) and in the assay on KARN cells (Jurkat 2C4) (setting [8]) were 1.4 nM and 1.9 nM, respectively. Besides, the IC50 turned out to be 9.6 nM at human HDAC8 (setting [11]); 0.046 nM in assay [4]; 0.14 nM against human HDAC1 [5]; 3100 nM against HDAC6 [6]; 0.32 nM at human HDAC2 (setting [12]).
